Test results as given in ChEMBL document CHEMBL1133120, “Synthesis and evaluation of isothiocyanate-containing derivatives of the delta-opioid receptor antagonist Tyr-Tic-Phe-Phe (TIPP) as potential affinity labels for delta-opioid receptors” (J Med Chem, 2000).
Where a SMILES comes first, the peptide text is derived from it. [ ]: non-standard residue; d: D form. Phe(4-NH2) = Nc1ccc(C[C@H](N)C(=O)O)cc1; Tic = O=C(O)[C@@H]1Cc2ccccc2CN1

Legend:
[1] = molecular target: Delta-type opioid receptor (Mus musculus, UniProt P32300); test: Binding assay evaluated using […] radioligand in CHO cells transfected with mouse Opioid receptor delta 1; type: cell-based
[2] = molecular target: Mu-type opioid receptor (Rattus norvegicus, UniProt P33535); test: Binding assay evaluated using DAMGO radioligand in CHO cells transfected with rat Opioid receptor mu 1; type: cell-based
Chain of Mu-type opioid receptor (P33535 whole entry): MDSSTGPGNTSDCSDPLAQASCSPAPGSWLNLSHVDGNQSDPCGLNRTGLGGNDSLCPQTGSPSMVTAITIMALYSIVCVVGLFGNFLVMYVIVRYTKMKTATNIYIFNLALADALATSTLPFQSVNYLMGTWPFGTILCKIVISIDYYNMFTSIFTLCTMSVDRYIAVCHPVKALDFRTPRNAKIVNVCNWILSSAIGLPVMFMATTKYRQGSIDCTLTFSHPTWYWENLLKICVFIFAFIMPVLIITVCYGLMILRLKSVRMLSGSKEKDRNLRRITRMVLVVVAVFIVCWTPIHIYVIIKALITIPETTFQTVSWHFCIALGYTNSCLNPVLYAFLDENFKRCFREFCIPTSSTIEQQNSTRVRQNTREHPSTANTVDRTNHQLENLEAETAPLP

Chain of Delta-type opioid receptor (P32300 whole entry): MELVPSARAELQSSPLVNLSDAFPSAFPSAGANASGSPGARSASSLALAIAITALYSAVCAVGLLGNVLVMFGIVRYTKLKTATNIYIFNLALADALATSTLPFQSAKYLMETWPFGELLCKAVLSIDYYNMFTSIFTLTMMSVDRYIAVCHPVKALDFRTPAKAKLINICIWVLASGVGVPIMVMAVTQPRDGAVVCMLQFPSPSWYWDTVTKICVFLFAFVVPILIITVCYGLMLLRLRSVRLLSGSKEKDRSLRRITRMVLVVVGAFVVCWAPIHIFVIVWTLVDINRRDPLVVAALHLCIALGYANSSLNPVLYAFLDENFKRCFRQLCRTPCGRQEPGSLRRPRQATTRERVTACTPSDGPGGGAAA

| SMILES | IC50 [1] [nM] | IC50 [2] [nM] |
| --- | --- | --- |
| N[C@@H](Cc1ccc(O)cc1)C(=O)N1Cc2ccccc2C[C@H]1C(=O)N[C@@H](Cc1ccc(N=C=S)cc1)C(=O)N[C@@H](Cc1ccccc1)C(=O)O | 12.4 | > 10000 |
| N[C@@H](Cc1ccc(O)cc1)C(=O)N1Cc2ccccc2C[C@H]1C(=O)N[C@@H](Cc1ccccc1)C(=O)N[C@@H](Cc1ccc(N=C=S)cc1)C(=O)O | 5.4 | > 10000 |
| N[C@@H](Cc1ccc(O)cc1)C(=O)N1Cc2ccccc2C[C@H]1C(=O)N[C@@H](Cc1ccccc1)C(=O)N[C@@H](Cc1ccccc1)C(=O)O (H-Y[Tic]FF-OH) | 5.8 | 22700 |
| Nc1ccc(C[C@H](NC(=O)[C@H](Cc2ccccc2)NC(=O)[C@@H]2Cc3ccccc3CN2C(=O)[C@@H](N)Cc2ccc(O)cc2)C(=O)O)cc1 (H-Y[Tic]F[Phe(4-NH2)]-OH) | 11.8 | > 10000 |
| Nc1ccc(C[C@H](NC(=O)[C@@H]2Cc3ccccc3CN2C(=O)[C@@H](N)Cc2ccc(O)cc2)C(=O)N[C@@H](Cc2ccccc2)C(=O)O)cc1 (H-Y[Tic][Phe(4-NH2)]F-OH) | 87.7 | > 10000 |
